Results reported in patent US20170081338A1, “SUBSTITUTED HETEROARYL COMPOUNDS AND METHODS OF USE” (Sunshine Lake Pharma Co., Ltd., priority 2015, published 2017).

Tests used:
[1] = target: T1, Aurora-A (h) (Homo sapiens, UniProt O14965); assay: Aurora-A (h) kinase assay; assay type: biochemical
T1 construct: purchased Millipore UK Ltd (contract assay service)
T1 sequence (O14965 1-403): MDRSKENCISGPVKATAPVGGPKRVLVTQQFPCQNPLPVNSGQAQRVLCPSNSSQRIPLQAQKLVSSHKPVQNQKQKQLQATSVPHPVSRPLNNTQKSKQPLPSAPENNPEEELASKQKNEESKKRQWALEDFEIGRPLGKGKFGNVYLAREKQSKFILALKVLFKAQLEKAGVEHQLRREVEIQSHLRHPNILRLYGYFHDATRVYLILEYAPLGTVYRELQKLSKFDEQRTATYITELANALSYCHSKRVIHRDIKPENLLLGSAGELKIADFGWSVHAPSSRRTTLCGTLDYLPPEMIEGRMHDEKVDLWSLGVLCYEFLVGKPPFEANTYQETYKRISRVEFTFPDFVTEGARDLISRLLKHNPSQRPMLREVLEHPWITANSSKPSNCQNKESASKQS
How it was run: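 Human Aurora-A incubated with 200 μM Kemptide, 10 mM Mg acetate, [γ-33P]ATP in 8 mM MOPS pH 7.0 for 40 min at room temperature; stopped with phosphoric acid, spotted on P30 filtermat and scintillation counted. IC50 from 10-point ½-log dilution series.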

[2] = Pharmacokinetics after intravenous and oral administration in rats; assay type: in vivo; details: for Clearance (CL) after iv dosing / AUC(0-t) / half-life / Vd: dose 1 mg/kg, iv dosing; for F: oral bioavailability; for AUC(0-t) / half-life / Vd: rat, plasma; for Vd: read-out: Vss
How it was run: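 Compounds dosed IV at 0.5, 1 or 2 mg/kg and orally at 0.5, 1, 5 or 10 mg/kg in rats, as solution, suspension or capsule formulations. Serial blood sampled out to 24 h and plasma stored frozen. Plasma levels quantified by LC/MS/MS in ESI MRM mode.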

Row | IC50 [1] | Clearance (CL) after iv dosing [2] | F [2] | AUC(0-t) [2] | half-life [2] | Vd [2] | SMILES
1 | 20 nM | 18.3 mL/min/kg | 101.3% | 908 ng·h/mL | 69 min | 0.63 L/kg | CC(C)CS(=O)(=O)N[C@H]1COC2C1OC[C@H]2Nc1nc(Nc2cnn(C)c2)ncc1Cl (stereo partly drawn) [Ex. 2, N-((3S,6R)-6-((5-chloro-2-((1-methyl-1H-pyrazol-4-yl)amino)pyrimidin-4-yl)amino)hexahydrofuro[3,2-b]furan-3-yl)-2-methylpropane-1-sulfonamide]
2 | 5 nM | 30.3 mL/min/kg | 84.2% | 547 ng·h/mL | 18 min | 0.83 L/kg | Cn1cc(Nc2ncc(Cl)c(N[C@@H]3COC4C3OC[C@@H]4NS(=O)(=O)CC3CC3)n2)cn1 (stereo partly drawn) [Ex. 25, N-((3S,6R)-6-((5-chloro-2-((1-methyl-1H-pyrazol-4-yl)amino)pyrimidin-4-yl)amino)hexahydrofuro[3,2-b]furan-3-yl)-1-cyclopropylmethanesulfonamide]
3 | 6 nM | 37.8 mL/min/kg | 62.7% | 442 ng·h/mL | 35.4 min | 0.75 L/kg | Cn1cc(Nc2ncc(Cl)c(N[C@@H]3COC4C3OC[C@@H]4NS(=O)(=O)CC(C)(C)C#N)n2)cn1 (stereo partly drawn) [Ex. 26, N-((3S,6R)-6-((5-chloro-2-((1-methyl-1H-pyrazol-4-yl)amino)pyrimidin-4-yl)amino)hexahydrofuro[3,2-b]furan-3-yl)-2-cyano-2-methylpropane-1-sulfonamide]
4 | 39 nM | 28.8 mL/min/kg | 66.1% | 581 ng·h/mL | 62.4 min | 0.85 L/kg | Cn1cc(Nc2ncc(Cl)c(N[C@@H]3COC4C3OC[C@@H]4NS(=O)(=O)CC(F)(F)F)n2)cn1 (stereo partly drawn) [Ex. 27, N-((3S,6R)-6-((5-chloro-2-((1-methyl-1H-pyrazol-4-yl)amino)pyrimidin-4-yl)amino)hexahydrofuro[3,2-b]furan-3-yl)-2,2,2-trifluoroethanesulfonamide]
